We go through two compounds from patent US20030036518A1, “ARTIFICIAL POLYMERIC MEMBRANE STRUCTURE, METHOD FOR PREPARING SAME, METHOD FOR PREPARING THIS POLYMER, PARTICLE AND FILM CONTAINING THIS STRUCTURE” (priority 1996, published 2003).

Format in all cases: physicochemical
Data set [1] in a line: Association of doxorubicin with porous particles. Particulars: 5 mg doxorubicin hydrochloride, 5 mg SEPHADEX® C25, 2 h at 4° C. Here is the method: The overall procedure was as in example 7, but incorporating doxorubicin (C27H29NO11,PM543, 53) in place of haemoglobin, 5 mg of doxorubicin hydrochloride being dissolved in 1 ml of distilled water and incubated with 5 mg of porous particles (SEPHADEX® C25) substituted with carboxymethyl groups. The pore size of the particles was such that molecules with a maximum molecular weight of 25000 could penetrate. The suspension was stirred for 2 h at 4° C. with a planetary stirrer. It was then decanted and the free doxorubicin concentration was measured by UV spectrophotometry at 480 nm. […] The non-absorbed doxorubicin fraction was removed by decanting and washing the cake with distilled water.

Data set [2] in a line: Association of doxorubicin with small-size porous particles. The note with it: 5 mg doxorubicin, 5 mg small-size porous particles, 2 h. Here is the method:
The procedure was as in example 10, but an attempt was made to prepare smaller sized porous particles. 1 g of SEPHADEX® C25 porous matrix was dispersed in 100 ml of distilled water and the preparation was ground for 15 min with a helical mill. The preparation was then centrifuged at 3000 g for 10 min and the supernatant was recovered and then subjected to further centrifuging at 25000 g for 45 min. The supernatant was removed, the cake was put back into suspension and 50 mg of a dry product were obtained following freeze-drying. The size of the particles obtained, measured by a particle analyzer, was between 300 and 500 nm.
5 mg of these small-size porous particles were dispersed in 5 ml of distilled water. 5 mg of doxorubicin were added and the whole was stirred for 2 h. The concentration of doxorubicin not associated with the particles was determined by ultrafiltration of an aliquot of the suspension through an ultrafiltration membrane of which the separation threshold was 50000, and the concentration of free doxorubicin was measured by UV spectrometry at 480 nm. […] These were then used as they were without supplementary purification.

Data set [3] can be described thus: Absorption of haemoglobin on the porous substrate. The note with it: 20 mg haemoglobin, 5 mg SEPHADEX® SPC50, pH 6.5, 24 h at 4° C. Here is the method:
5 mg of porous particles (SEPHADEX® SPC50) with a diameter of 150 μm substituted with sulfopropyl groups and having a pore size sufficient to allow the penetration of molecules with a maximum molecular weight of 250000, were dispersed in 5 ml of a 10 mM bi-tri buffer, of pH 6.5 (where the haemoglobin is cationic and is attracted inside the anionic sites of the porous particles). 20 mg of haemoglobin, extracted from human erythrocytes by the lysis method in a hypotonic medium, were then added to this dispersion. The preparation was stirred for 24 h at 4° C. on a planetary stirrer. The particles were then decanted and the quantity present in the supernatant was determined by UV spectrometry at 410 nm. […] The non-absorbed haemoglobin was removed by decanting the particles and washing them with a 10 mM bi-tri buffer.

For the compound `COc1cccc2c1C(=O)c1c(O)c3c(c(O)c1C2=O)C[C@@](O)(C(=O)CO)C[C@@H]3O[C@H]1C[C@H](N)[C@H](O)[C@H](C)O1` [doxorubicin], the “doxorubicin associated with the particles” value in data set [1] is “more than 97%”; in data set [2] it was “more than 98%”. In the case of “haemoglobin: haemoglobin extracted from human erythrocytes by the lysis method in a hypotonic medium”, in data set [3], the “haemoglobin present inside the particles” value was “more than 98%”.
